Holding throughout (test): MIC by microtitration dilution method
Format in all cases: cell-based

One experiment relates to Escherichia coli Vogel. The conditions noted are these: in vitro, read-out: Minimal Inhibitory Concentration MIC. An excerpt: (§1) Agents & Chemoth., 6, 124 (1974), which is incorporated herein by reference.
Another experiment relates to Proteus rettgeri M 1771. The conditions noted are these: Providencia rettgeri, M1771; Proteus rettgeri M 1771, in vitro; read-out: Minimal Inhibitory Concentration MIC.
From the text: as §1

The subject of experiment [1] is Pseudomonas aeruginosa UI-18. The conditions noted are these: UI18, read-out: Minimal Inhibitory Concentration MIC.
From the text: as §1

Experiment [2] deals with Klebsiella pneumoniae MGH-2. Particulars: MGH2, read-out: Minimal Inhibitory Concentration MIC.
From the text: as §1

For experiment [3], the system named is Enterobacter cloacae MA 2646. Particulars: MA2646, read-out: Minimal Inhibitory Concentration MIC.
From the text: as §1

Experiment [4] deals with Streptococcus faecalis MGH-2. Particulars: Enterococcus faecalis, MGH2; Streptococcus faecalis MGH-2, in vitro; read-out: Minimal Inhibitory Concentration MIC. An excerpt: (§2) The compounds of the invention display antibacterial activity when tested by the microtitration dilution method as described in Heifetz, et al, Antimicr. Agents & Chemoth., 6, 124 (1974), which is incorporated herein by reference.
(§3) By use of the above referenced method, the following minimum inhibitory concentration values (MICs in μg/ml) were obtained for representative compounds of the invention.

Experiment [5] has as its system Staphylococcus aureus UC-76. Particulars: UC76; Staphylococcus aureus UC-76, in vitro; read-out: Minimal Inhibitory Concentration MIC.
From the text: as §2, §3

The test system of experiment [6] is Staphylococcus aureus H 228. The conditions noted are these: H228; Staphylococcus aureus H 228, in vitro; read-out: Minimal Inhibitory Concentration MIC.
From the text: as §2, §3

Experiment [7] deals with Streptococcus pyogenes C-203. The conditions noted are these: C203; Streptococcus pyogenes C-203, in vitro; read-out: Minimal Inhibitory Concentration MIC.
From the text: as §2, §3

In experiment [8] the test system is Streptococcus pneumoniae SV-1. The conditions noted are these: SV1; Streptococcus pneumoniae SV-1, in vitro; read-out: Minimal Inhibitory Concentration MIC.
From the text: as §2, §3

The record followed here is patent US4840956A, “Novel disubstituted-7-pyrrolidinoquinoline antibacterial agents” (Warner-Lambert Company, priority 1988, dated 1989).

In brackets after ≈: the same amount, converted by molar mass.

`NCC1(c2ccccc2)CCN(c2c(F)cc3c(=O)c(C(=O)O)cn(C4CC4)c3c2F)C1` (stereo not shown) [Example 5, 7-[[3-(Aminomethyl)-3-phenyl]-1-pyrrolidinyl]-1-cyclopropyl-6,8-difluro-1,4-dihydro-4-oxo-3-quinolinecarboxylic acid]: the MIC is 0.05 µg/mL (≈ 0.114 µM) in the experiment on Escherichia coli Vogel; 0.2 µg/mL (≈ 0.455 µM) with Proteus rettgeri M 1771; 0.4 µg/mL (≈ 0.91 µM) in [1]; 0.1 µg/mL (≈ 0.228 µM) in experiment [2]; 0.05 µg/mL (≈ 0.114 µM) in experiment [3]; 0.05 µg/mL (≈ 0.114 µM) in [4]. In addition, the MIC in experiment [5] was determined as 0.013 µg/mL (≈ 0.0296 µM); in experiment [6] it was 0.025 µg/mL (≈ 0.0569 µM); in experiment [7] it was 0.05 µg/mL (≈ 0.114 µM); in experiment [8], 0.013 µg/mL (≈ 0.0296 µM).
